Broadly, the IC50 is the concentration needed to halve the response being measured.

These results are taken from paper PMC6100301, “Cytotoxic and N-Acetyltransferase Inhibitory Meroterpenoids from Ganoderma cochlear” (Molecules : A Journal of Synthetic Chemistry and Natural …, 2018).

The target of one data set is T1, recombinant NAT2 (Homo sapiens, UniProt P11245).
T1 construct: purchased Corning Company, Corning, NY, USA 456282
T1 sequence (P11245 1-290): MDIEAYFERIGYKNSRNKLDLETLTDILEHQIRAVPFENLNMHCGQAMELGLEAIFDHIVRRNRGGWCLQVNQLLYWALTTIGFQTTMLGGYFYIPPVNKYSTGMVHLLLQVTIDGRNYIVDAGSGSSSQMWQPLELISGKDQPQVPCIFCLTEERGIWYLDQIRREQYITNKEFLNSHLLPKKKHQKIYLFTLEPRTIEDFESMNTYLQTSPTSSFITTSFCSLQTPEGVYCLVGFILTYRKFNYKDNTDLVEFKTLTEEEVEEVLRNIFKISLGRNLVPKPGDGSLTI
As to the kind of experiment: N-Acetyltransferase (NAT) inhibition, fluorescent probe assay. In kind it is biochemical. Conditions: 30 min incubation; for NAT2 inhibition at 10 μM: positive control quercetin 10 μM (Figure 4).

In data set [1] the test system is A549 human lung cancer cell line. As to the kind of experiment: Cytotoxicity, CCK-8 cell viability assay. In kind it is cell-based. The conditions noted are these: for Cytotoxic activity against A549 cells at 40 μM: screening (Figure S46); for IC50: Homo sapiens, A549 cells, CCK-8 assay, 24 h drug treatment. Here is the method: (§1) All the isolated meroterpenoids were evaluated for their cytotoxic activity against three human lung cancer cell lines (H1975, PC9, A549). […] Besides, 2 and 5 are also found to be active against H1975 and PC9 cells at 40 μM. With this, the cytotoxic potency of 2 and 5 toward three cancer cell lines were further determined using the CCK-8 assay.
(§2) The human NSCLC cell line (NCL-H1975) was purchased from Shanghai Cell Bank of Chinese Academy of Sciences, (Shanghai, China). PC9 and A549 were obtained from American Type Culture Collection (ATCC, Manassas, VA, USA). Cells were cultured in DMEM (Gibco, Grand Island, NY, USA) with 4.5 g/L glucose and 10% FBS (Gibco, Grand Island, NY, USA). Erlotinib used in the experiments were purchased from Selleck (Selleck Chemicals, Houston, TX, USA). Cytotoxicity was determined using the previously described method. Three human lung cancer cell lines were incubated in 96-well plates (5000 cells/well) respectively to attach overnight and then exposed to drug treatments for additional 24 h. And the CCK solution was added, after 2 h of incubation, the absorbance was measured at a wavelength of 450 nm. Cell viability was measured by a TransDetect® Cell Counting Kit (TransGen Biotech, Beijing, China). The IC50 values were calculated using the GraphPad Prism 5.0 (GraphPad Software, San Diego, CA, USA).

Data set [2] relates to PC9 human lung cancer cell line. Nature of the data set: Cytotoxicity, CCK-8 cell viability assay. In kind it is cell-based. The conditions noted are these: for Cytotoxic activity against PC9 cells at 40 μM: screening (Figure S46); for IC50: Homo sapiens, PC-9, PC9 cells, CCK-8 assay, 24 h drug treatment. How it is done:
as §1, §2
For orientation: Formazan colour is commonly taken as a measure of viable cells.

Data set [3] deals with H1975 human lung cancer cell line. Nature of the data set: Cytotoxicity, CCK-8 cell viability assay. It counts as cell-based. Conditions: for Cytotoxic activity against H1975 cells at 40 μM: screening (Figure S46); for IC50: Homo sapiens, NCI-H1975, H1975 cells, CCK-8 assay, 24 h drug treatment. Here is the method:
as §1, §2

`CC(C)=CCCC(C)=CCCC1=C[C@](c2cc(O)ccc2O)(c2oc(-c3cc(O)ccc3O)cc2CCC=C(C)CCC=C(C)C)OC1=O` [(+)-1, (+)-gancochlearol C]: the “NAT2 inhibition at 10 μM” value at recombinant NAT2 is “more potent than quercetin”. Further, the IC50 on recombinant NAT2 (0.5-10 μM, read-out: IC50 toward NAT2) was 5.29 µM.
As for `CC(C)=CCCC(C)=CCCC1=C[C@@](c2cc(O)ccc2O)(c2oc(-c3cc(O)ccc3O)cc2CCC=C(C)CCC=C(C)C)OC1=O` [(−)-1, (−)-gancochlearol C], on recombinant NAT2, the “NAT2 inhibition at 10 μM” value is listed as “could inhibit NAT2”.
Turning to `CC(=O)OC/C(=C\Cc1cc(O)ccc1O)CC/C=C(\C)CCC=C(C)C` [Compound 2, Gancochlearol D], in data set [1], the “Cytotoxic activity against A549 cells at 40 μM” value is “cytotoxic” and the half-inhibitory concentration (IC50) was determined as 30.7 µM. Besides, in data set [2], the “Cytotoxic activity against PC9 cells at 40 μM” value is listed as “active” and the IC50 was found to be 40.6 µM. Moreover, in data set [3], the “Cytotoxic activity against H1975 cells at 40 μM” value is “active” and the IC50 amounted to 32.4 µM.
Turning to `CC(C)=CCC/C(C)=C/CC/C(=C/Cc1cc(O)ccc1O)CO` [Compound 5, ganomycin F], in data set [1], the “Cytotoxic activity against A549 cells at 40 μM” value is given as “most active” and the IC50 is 21.6 µM. Further, in data set [2], the “Cytotoxic activity against PC9 cells at 40 μM” value is on record as “active” and the IC50 stood at 35.7 µM. Further, in data set [3], the “Cytotoxic activity against H1975 cells at 40 μM” value was “active” and half-maximal inhibition (IC50) required 19.5 µM.
Take `C#Cc1cccc(Nc2ncnc3cc(OCCOC)c(OCCOC)cc23)c1` [Erlotinib, reference compound]: the concentration for half-maximal inhibition (IC50) in data set [1] came out at 4.59 µM; in data set [2], 0.085 µM; in data set [3] it was 7.66 µM.
